Literature values, collected in patent publication US20070026077A1 (priority 2003, published 2007).

Key:
[1] = white crystalline light powder
[2] = system: small-cell lung carcinoma; conditions: patients with small-cell lung carcinoma

| SMILES | hygroscopicity [1] | bound to plasmatic proteins (plasmatic proteins) | survival time [2] | tumor disease progression [2] |
| --- | --- | --- | --- | --- |
| CC(=O)CC(c1ccccc1)c1c([O-])c2ccccc2oc1=O.[Na+] (stereo not drawn) [warfarin sodium salt, sodium salt of 3-(α-acetonylbenzyl)-4-hydroxy-coumarin] | hygroscopic | – | – | – |
| CC(=O)CC(c1ccccc1)c1c(O)c2ccccc2oc1=O (stereo not shown) [warfarin] | – | About 97% | prolongation of survival time | statistically significant retardation of tumor disease progression |
